In US6476056B2, “Heterocycle substituted aryloxyaniline derivatives and their use as MDR ligands” (Taisho Pharmaceutical Co., Ltd., priority 1997, dated 2002) one finds IC50 data, which are given here for 65 compounds.

Counter-ions that a name gives are not always drawn.

This assay has as its target T1, MDR (Rattus norvegicus, UniProt P16257).
T1 construct: Crude mitochondria fractions prepared from rat cerebral cortex were used as a receptor sample; from tissue; host or cells: rat cerebral cortex, crude mitochondria fraction
Description: MDR receptor binding assay ([3H]PK11195 displacement). As to conditions: 50% inhibition of [3H]PK11195 (2 nM) binding; crude mitochondria fraction from rat cerebral cortex; 4° C., 90 minutes. Here is the method:
Experiment [MDR Receptor Binding Assay]
Crude mitochondria fractions prepared from rat cerebral cortex were used as a receptor sample, and [^3H]PK11195 was used as a [^3H]-labeled ligand.
A binding assay using the [^3H]-labeled ligand was carried out according to the following method as described in Journal of Pharmacology and Experimental Therapeutics, 262, 971(1992).
Preparation of Receptor Sample: Rat cerebral cortex was homogenized using a Teflon-coated homogenizer in a 10 mM HEPES buffer (pH 7.4) containing 0.32 M sucrose in ten volumes of the wet weight. The homogenate was centrifuged at 900×g for 10 minutes, and the resulting supernatant was centrifuged at 9,000×g for 10 minutes. The precipitate was suspended in a HEPES buffer to give a protein concentration of 1 mg/ml, and centrifuged at 12,000×g for 10 minutes. The resulting precipitate was suspended in a 50 mM HEPES buffer (pH 7.4) to give a crude mitochondria fraction.
MDR Binding Assay: Mitochondria sample (1.0 mg protein/ml), [^3H]PK11195 (2 nM) and the test drug were reacted at 4° C. for 90 minutes. After completion of the reaction, the reaction mixture was filtered with suction through a glass filter (GF/B) treated with 0.3% polyethyleneimine, and the radioactivity on the filter was measured by a liquid scintillation spectrometer.
The binding at the reaction in the presence of 10 μM PK11195 was defined as non-specific binding of [3H]PK11195, and the difference between total binding and non-specific binding was defined as specific binding.
As to `COc1ccc(OC)c(CN(C(C)=O)c2cc(F)ccc2Oc2ccccc2)c1` [Compound 021], the IC50 was determined as 0.31 nM.

Compound `COc1ccc(OC)c(CN(C(C)=O)c2ccc(Cl)cc2Oc2ccccc2)c1` [Compound 022] returned an IC50 of 0.179 nM.

The compound `CC(=O)N(Cc1ccccc1O)c1ccccc1Oc1ccccc1` [Compound 027, N-acetyl-N-(2-hydroxybenzyl)-2-phenoxyaniline] came in with a 50% inhibitory concentration (IC50) of 3.2 nM. In the case of `COc1ccccc1CN(C(C)=O)c1ccccc1Oc1ccc(F)cc1F` [Compound 112] it was 0.376 nM; in that of `COc1ccccc1CN(C(=O)C1CCC1)c1ccccc1Oc1ccccc1` [Compound 077], 5.59 nM; in that of `CCCCCOc1ccccc1CN(C(C)=O)c1ccccc1Oc1ccccc1` [Compound 010], 0.149 nM.

`COc1cccc(Oc2ccccc2N(Cc2ccccc2OC)C(C)=O)c1` [Compound 104] gave an IC50 of 0.343 nM. In the case of `CC(=O)N(Cc1ccccc1N1CCCC1)c1ccccc1Oc1ccccc1` [Compound 054, N-Acetyl-N-(2-pyrrolidinobenzyl)-2-phenoxyaniline monohydrochloride] it was 1.26 nM; in that of `COc1ccccc1CN(C(=O)CO)c1ccccc1Oc1ccccc1` [Compound 085, N-Hydroxyacetyl-N-(2-methoxybenzyl)-2-phenoxyaniline], 3.85 nM; in that of `CSc1ccccc1CN(C(C)=O)c1ccccc1Oc1ccccc1` [Compound 034], 0.179 nM. Turning to `CC(=O)N(Cc1ccccc1OC(C)C)c1ccc(Cl)cc1Oc1ccccc1` [Compound 008], the IC50 is 0.87 nM.

`CCOc1ccccc1CN(C(C)=O)c1ccccc1Oc1ccccc1` [Compound 003] had an IC50 of 0.123 nM. In turn, `CC(=O)N(Cc1ccc(Cl)cc1)c1ccccc1Oc1ccccc1` [Compound 031] registered an IC50 of 1.23 nM. This IC50 is about 10-fold higher than that of the compound before.

Turning to `COc1ccc(CN(C(C)=O)c2ccccc2Oc2ccccc2)cc1` [Compound 002], the IC50 amounted to 0.658 nM.

In turn, `COC(=O)N(Cc1ccccc1OC)c1ccccc1Oc1ccccc1` [Compound 098, N-(2-Methoxybenzyl)-N-methoxycarbonyl-2-phenoxyaniline] displayed an IC50 of 0.498 nM. In the case of `CCOC(=O)N(Cc1ccccc1OC)c1ccccc1Oc1ccccc1` [Compound 099] it was 0.87 nM. In the case of `COc1ccccc1CN(C(C)=O)c1ccccc1Oc1cccc(F)c1` [Compound 108] it was 0.413 nM; in that of `COc1ccccc1CN(C=O)c1ccccc1Oc1ccccc1` [Compound 087], 0.572 nM. Regarding `CC(=O)N(Cc1ccccc1C)c1ccccc1Oc1ccccc1` [Compound 049], the IC50 turned out to be 4.23 nM.

`COc1ccccc1CN(C(=O)COC(C)=O)c1ccccc1Oc1ccccc1` [Compound 082, N-acetoxyacetyl-N-(2-methoxybenzyl)-2-phenoxyaniline]: the IC50 turned out to be 8.9 nM. In the case of `CCCC(=O)N(Cc1ccccc1OC)c1ccccc1Oc1ccccc1` [Compound 071] it was 1.26 nM.

In the case of `CC(=O)N(Cc1ccccc1OCCC(C)C)c1ccccc1Oc1ccccc1` [Compound 011], the IC50 worked out at 0.163 nM. Compared with the last compound, the IC50 is about 7.7-fold lower. In the case of `COc1ccccc1CN(C(=O)C(C)C)c1ccccc1Oc1ccccc1` [Compound 072] it was 3.51 nM; in that of `CNC(=O)N(Cc1ccccc1OC(C)C)c1ccccc1Oc1ccccc1` [Compound 093], 0.87 nM. `CC(=O)N(Cc1ccccc1Br)c1ccccc1Oc1ccccc1` [Compound 033] returned an IC50 of 3.51 nM. Against the preceding compound, the IC50 is about 4-fold higher.

`COc1ccccc1CN(C(C)=O)c1ccccc1Oc1cccc(C)c1` [Compound 101] gave an IC50 of 0.285 nM. In the case of `COc1ccccc1N(C(C)=O)c1ccccc1Oc1ccccc1` [Compound 013, N-Acetyl-N-(2-methoxyphenyl)-2-phenoxyaniline] it was 9.77 nM. In the case of `CC(=O)N(Cc1ccccc1F)c1ccccc1Oc1ccccc1` [Compound 032] it was 6.73 nM; in that of `COc1ccccc1C(C)N(C(C)=O)c1ccccc1Oc1ccccc1` (centres unmarked) [Compound 014], 2.21 nM; in that of `COc1ccc(CN(C(C)=O)c2ccccc2Oc2ccccc2)c(OC)c1` [Compound 016, N-Acetyl-N-(2,4-dimethoxybenzyl)-2-phenoxyaniline], 0.722 nM. In the case of `CC(=O)Oc1ccccc1CN(C(C)=O)c1ccccc1Oc1ccccc1` [Compound 028, N-acetyl-N-(2-acetyloxybenzyl)-2-phenoxyaniline] it was 3.2 nM; in that of `COc1ccccc1CN(C(C)=O)c1ccc(Cl)cc1Oc1ccccc1` [Compound 120], 0.196 nM. As for `COc1ccccc1CN(C(N)=O)c1ccccc1Oc1ccccc1` [Compound 089, N-Aminocarbonyl-N-(2-methoxybenzyl)-2-phenoxyaniline], the IC50 stood at 3.51 nM. In the case of `COc1ccccc1CN(C(C)=O)c1ccccc1Oc1ccc(C)cc1` [Compound 102] it was 0.123 nM. In the case of `COc1ccccc1CN(C(=O)c1ccccc1)c1ccccc1Oc1ccccc1` [Compound 079] it was 4.64 nM; in that of `COc1ccccc1CN(C(C)=O)c1ccccc1Oc1ccccc1C` [Compound 100], 0.112 nM. In turn, `CCCCCOc1ccccc1CN(C(=O)NC)c1ccccc1Oc1ccccc1` [Compound 094] had an IC50 of 0.925 nM. In the case of `CCOc1ccccc1CN(C(=O)CC)c1ccc(Cl)cc1Oc1ccccc1` [Compound 066] it was 0.925 nM; in that of `COc1ccccc1CN(C(=O)C1CC1)c1ccccc1Oc1ccccc1` [Compound 076], 0.955 nM. `COc1ccccc1CN(C(C)=O)c1ccc(F)cc1Oc1ccccc1` [Compound 116] yielded an IC50 of 0.343 nM. The compound `COc1cc(CN(C(C)=O)c2ccccc2Oc2ccccc2)cc(OC)c1` [Compound 025] gave a 50% inhibitory concentration (IC50) of 0.26 nM.

The compound `COC(=O)c1ccccc1CN(C(C)=O)c1ccccc1Oc1ccccc1` [Compound 040, N-acetyl-N-(2-methoxycarbonylbenzyl)-2-phenoxyaniline] registered an IC50 of 0.0643 nM. Compared with the last compound, the IC50 is about 4-fold lower.

Regarding `CCCCCC(=O)N(Cc1ccccc1OC)c1ccccc1Oc1ccccc1` [Compound 075], the IC50 is 1.83 nM. In the case of `CC(=O)N(Cc1ccccc1)c1ccccc1Oc1ccccc1` [Compound 056] it was 2.92 nM; in that of `COc1ccccc1CN(C(C)=O)c1cc(F)ccc1Oc1ccccc1` [Compound 117], 0.792 nM; in that of `COc1ccc(OC)c(CN(C(C)=O)c2cc(C)ccc2Oc2ccccc2)c1` [Compound 019], 0.196 nM. On to `COc1ccccc1CN(C(C)=O)c1ccccc1Oc1ccc(F)cc1` [Compound 109], for which the IC50 turned out to be 0.285 nM. The IC50 values of the last two compounds are within 1.5-fold of each other. Compound `COc1ccccc1CN(C(C)=O)c1ccc(Oc2ccccc2)cc1Oc1ccccc1` [Compound 127] showed an IC50 of 3.51 nM.

Compound `CCCOc1ccccc1CN(C(=O)NC)c1ccccc1Oc1ccccc1` [Compound 092] came in with an IC50 of 0.722 nM. The compound `CCCCC(=O)N(Cc1ccccc1OC)c1ccccc1Oc1ccccc1` [Compound 073] gave an IC50 of 1.52 nM. On to `CC(=O)N(Cc1ccc(N(C)C)cc1)c1ccccc1Oc1ccccc1` [Compound 055], for which the IC50 was 1.83 nM. The IC50 values of the last two compounds are within 1.5-fold of each other.

For the compound `CCC(=O)N(Cc1ccccc1OC)c1ccccc1Oc1ccccc1` [Compound 064], the IC50 is 0.0933 nM.

Regarding `COc1ccc(Oc2ccccc2)c(N(Cc2ccccc2OC)C(C)=O)c1` [Compound 126], the IC50 was 8.11 nM. Compared with the last compound, the IC50 is about 87-fold higher.

In turn, `C=Cc1ccccc1CN(C(C)=O)c1ccccc1Oc1ccccc1` [Compound 051] gave an IC50 of 0.196 nM. In the case of `CC(=O)N(Cc1ccccc1[N+](=O)[O-])c1ccccc1Oc1ccccc1` [Compound 052, N-acetyl-N-(2-nitrobenzyl)-2-phenoxyaniline] it was 4.64 nM; in that of `CNC(=O)N(Cc1cc(OC)ccc1OC)c1ccccc1Oc1ccccc1` [Compound 095, N-(2,5-Dimethoxybenzyl)-N-(N-methylaminocarbonyl)-2-phenoxyaniline], 3.77 nM. The compound `COc1ccccc1CN(C(C)=O)c1cc(C)ccc1Oc1ccccc1` [Compound 124] displayed an IC50 of 0.343 nM. Compared with the last compound, the IC50 is about 11-fold lower. `CCOc1ccccc1CN(C=O)c1ccccc1Oc1ccccc1` [Compound 088] came in with an IC50 of 0.163 nM. For the compound `COc1ccc(OC)c(CN(C(C)=O)c2ccccc2Oc2ccccc2)c1` [Compound 017], the IC50 is 0.085 nM.

Take `CCCc1ccccc1CN(C(C)=O)c1ccccc1Oc1ccccc1` [Compound 050, N-Acetyl-N-(2-propylbenzyl)-2-phenoxyaniline]: the IC50 is 0.215 nM. Against the preceding compound, the IC50 is about 2.5-fold higher. In the case of `COc1cccc(CN(C(C)=O)c2ccccc2Oc2ccccc2)c1` [Compound 001] it was 1.38 nM; in that of `CNC(=O)N(Cc1ccccc1OC)c1ccccc1Oc1ccccc1` [Compound 090, N-(2-Methoxybenzyl)-N-(N-methylaminocarbonyl)-2-phenoxyaniline], 4.64 nM.

Take `CCOc1ccccc1CN(C(=O)NC)c1ccccc1Oc1ccccc1` [Compound 091]: the IC50 came out at 1.83 nM. In the case of `CCCOc1ccccc1CN(C(=O)CC)c1ccc(Cl)cc1Oc1ccccc1` [Compound 067] it was 1.08 nM; in that of `COc1ccccc1CN(C(C)=O)c1c(F)cccc1Oc1ccccc1` [Compound 118], 0.498 nM.

By IC50 is commonly meant the concentration that gives 50% inhibition. A higher IC50 goes with weaker potency in that assay.
